In publication PMC9267955, “Antidiabetic, Antiglycation, and Antioxidant Activities of Ethanolic Seed Extract of Passiflora edulis and Piceatannol In Vitro” (Molecules, 2022):
Marks after values point to notes of the source that are not given here.

Legend:
[1] = tested on: BEAS-2B cells; test: MTS cell viability assay; assay type: cell-based, human; conditions: 100 µg/mL (409 µM); 24 h
Method: BEAS-2B, MCF10-A, and AML-12, cells were purchased from the American Tissue Type Culture Collection (ATCC; CRL-9609, CRL-10317, and CRL-2254) and cultured with a specific medium. BEAS-2B cells were cultured with LHC-9 media at 37 °C in an incubator with 5% CO2. […] Cells were grown to around 70% confluence on the culture flask, and passages (<10) were employed for all experimental conditions. MTS Cell Titer 96™ aqueous cell proliferation assay was used to determine cell viability. […] For that, 1 × 10^4 cells were plated on a 96-well plate with a growth medium of 100 μL/well. […] Fifteen microliters of MTS reagent (with PMS) was then added to each well and incubated for 3 h in the dark. Absorbance was recorded at 490 nm using a microplate reader (Infinite® 200 PRO, TECAN, Männedorf, Switzerland). For each experiment, cells with DMSO media served as control, and cells with only culture medium and MTS reagent served as the blank.

[2] = tested on: diabetic mice; set-up: method as in doi:10.32604/biocell.2020.08955; conditions: cited from earlier work
[3] = tested on: MCF-10A cells; test: Intracellular ROS level (DCFH-DA) after NNKOAc; assay type: cell-based; conditions: 50 µg/mL, 3 h pretreatment; NNKOAc 100 µM
Method: (§1) The generation of intracellular ROS in BEAS-2B, AML-12, and MCF-10A cells after treatments was measured as described previously. Briefly, DCFH-DA dye was readily taken up by cells and is subsequently hydrolyzed to DCFH, which can be oxidized to a measurable fluorescent product dichlorofluorescein (DCF). […] Cells with DMSO media (0.5%) served as the vehicle control. After treatments, DCFH-DA was added to the cell culture plates at a final concentration of 5 μM followed by 40 min incubation at dark. The fluorescence […] was then measured at an excitation and emission wavelength of 485 nm and 535 nm, using a microplate reader (Infinite® 200 PRO, TECAN, Männedorf, Switzerland).
(§2) BEAS-2B, MCF10-A, and AML-12, cells were purchased from the American Tissue Type Culture Collection (ATCC; CRL-9609, CRL-10317, and CRL-2254) and cultured with a specific medium. BEAS-2B cells were cultured with LHC-9 media at 37 °C in an incubator with 5% CO2. Culture flasks (polystyrene T75) were pre-coated with a mixture of 0.01 mg/mL fibronectin, 0.03 mg/mL bovine collagen type I, and 0.01 mg/mL bovine serum albumin were dissolved in LHC-9 medium overnight. […]

[4] = target: alpha-glucosidase; set-up: method as in PMID 31986026; conditions: cited from earlier work
[5] = target: T1, alpha-amylase from porcine pancreas (Sus scrofa, UniProt P00690); test: Alpha-amylase inhibition assay; assay type: biochemical; conditions: pancreatic alpha-amylase; mean ± SD, triplicates
T1 construct: alpha-amylase from porcine pancreas; purchased Sigma-Aldrich (Oakville, ON, Canada); host or cells: porcine pancreas
T1 sequence (P00690 16-511): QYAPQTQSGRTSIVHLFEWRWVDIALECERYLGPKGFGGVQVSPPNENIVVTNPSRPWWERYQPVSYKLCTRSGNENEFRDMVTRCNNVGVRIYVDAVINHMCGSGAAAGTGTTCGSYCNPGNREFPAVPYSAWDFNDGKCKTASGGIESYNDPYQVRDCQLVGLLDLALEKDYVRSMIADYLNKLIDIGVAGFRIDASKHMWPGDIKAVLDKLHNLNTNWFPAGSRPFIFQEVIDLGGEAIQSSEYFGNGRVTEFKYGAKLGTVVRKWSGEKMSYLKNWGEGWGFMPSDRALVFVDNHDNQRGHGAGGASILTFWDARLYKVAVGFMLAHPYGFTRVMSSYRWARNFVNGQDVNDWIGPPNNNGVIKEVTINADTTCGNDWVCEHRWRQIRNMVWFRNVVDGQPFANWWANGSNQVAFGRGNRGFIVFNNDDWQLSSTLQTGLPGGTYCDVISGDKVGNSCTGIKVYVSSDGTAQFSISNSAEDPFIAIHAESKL
Method: Plant extract screening for alpha-amylase inhibition was conducted using the previously described method [46], with some modifications. Except as otherwise indicated, solutions were prepared in 0.01 M potassium phosphate buffer containing sodium chloride (60 mM) and sodium azide (0.02% w/v), pH 6.8. […] After 10 min of incubation at 37 °C, 20 µL of the substrate 2-chloro-4-nitrophenyl-α-D-maltotrioside (5 mM) was added. The mixture was then incubated for 30 min at 37 °C for the reaction to take place. The reaction was terminated by adding 240 µL of trisodium phosphate solution of pH 11 (1% w/v) to stop enzyme activity. […] The positive control was a mixture of enzyme and substrate without inhibitors. Sample control containing sample and buffer was used to eliminate color interference. Buffer was used as blank. The percentage of the alpha-amylase inhibition was calculated as I% = [(Abs0 − Abs1)/Abs0] × 100, where A0 is the absorbance of the positive control subtracted from the blank, Abs 1 is the absorbance in the presence of the extract subtracted from sample control. The IC50 (half-maximal inhibitory concentration) was calculated graphically, using an analytical curve by plotting the concentration versus the inhibition percentage (I%).

[6] = tested on: amyloid fibrils of glycated BSA (BSA/Fru + Glu); test: Inhibition of amyloid fibril formation, ThT assay (BSA/Fru + Glu); assay type: biochemical, bovine
Method: The formation of AGEs was measured after incubation of a system containing protein and carbohydrates. This assay was based on previous methods. The reaction system was obtained by adding 300 µL of plant extract or of the pure compound (at different concentrations), 150 µL D-fructose (200 mM), 150 µL of D-glucose (200 mM), and 300 µL of bovine serum albumin (BSA, 3 mg/mL) to a test tube. All these solutions, except plant extract, were dissolved in 0.05 M potassium phosphate buffer (pH 7.4) containing NaCl (100 mM) and NaN3 (0.02% w/v). The plant extract was prepared in a buffer containing 60% ethanol. The mixture was incubated in the dark at 37 °C for 7 days with constant stirring. After the incubation, 200 µL of the reaction mixture was transferred to a 96-well black plate, and fluorescent AGEs were measured using a microplate reader (Infinite® 200 PRO, TECAN, Männedorf, Switzerland) at λex = 360 and λem = 440 nm. […] The fluorescence readings for the experimental treatment were blanked against extract blanks to eliminate the baseline fluorescence of the sample. The percentage of the AGE inhibition and IC50 was calculated as described in Section 3.3.1.
The fibrillar state of modified BSA was determined with ThT as previously described. ThT is a probe that binds directly to amyloid fibrils to give a strong fluorescent signal and thus can be used to quantify β-amyloid due to protein glycation. […]

[7] = tested on: BEAS-2B cells; test: Intracellular ROS level (DCFH-DA) after NNKOAc; assay type: cell-based, human
Method: as §1, §2

SMILES: Oc1cc(O)cc(/C=C/c2ccc(O)c(O)c2)c1 [PIC, 3,3′,4′,5-trans-tetrahydroxystilbene]
- Reduction of cell viability of BEAS-2B cells [1]: approximately 50%
- Blood glucose, diabetic mice [2]: lowered the blood glucose
- Glucose tolerance, diabetic mice [2]: improved glucose tolerance
- Protection from oxidative stress (ROS) caused by the carcinogen, MCF-10A [3]: able to protect
- IC50 [4]: 4.3 ± 0.07 µM
- IC50 [5]: 350 µM
- Inhibition of the formation of β-amyloid fibrils in vitro ([6]; abstract, glycation system not specified): up to 100%
- Inhibition of Amyloid Fibrils (%), Fructose + Glucose ([6]; highest obtained, PESE 200, PIC 200, AMG 100 µg/mL, BSA/Fru + Glu): 100 ± 5.3 ^a %
- Protection from oxidative stress (ROS) caused by the carcinogen, BEAS-2B ([7]; 50 µg/mL, 3 h pretreatment, NNKOAc 100 µM): able to protect
- Protection of cultured human cells from oxidative stress caused by NNKOAc ([7]; NNKOAc at 100 µM, abstract, cell line and concentration not specified): capable of protecting
